Assay results reported in ChEMBL document CHEMBL5291721, “A preclinical secondary pharmacology resource illuminates target-adverse drug reaction associations of marketed drugs” (Nat Commun, 2023).

Legend:
[1] = target: T1, Alpha-1A adrenergic receptor (Homo sapiens, UniProt P35348); type: functional, cell-based
T1 sequence (P35348 whole entry): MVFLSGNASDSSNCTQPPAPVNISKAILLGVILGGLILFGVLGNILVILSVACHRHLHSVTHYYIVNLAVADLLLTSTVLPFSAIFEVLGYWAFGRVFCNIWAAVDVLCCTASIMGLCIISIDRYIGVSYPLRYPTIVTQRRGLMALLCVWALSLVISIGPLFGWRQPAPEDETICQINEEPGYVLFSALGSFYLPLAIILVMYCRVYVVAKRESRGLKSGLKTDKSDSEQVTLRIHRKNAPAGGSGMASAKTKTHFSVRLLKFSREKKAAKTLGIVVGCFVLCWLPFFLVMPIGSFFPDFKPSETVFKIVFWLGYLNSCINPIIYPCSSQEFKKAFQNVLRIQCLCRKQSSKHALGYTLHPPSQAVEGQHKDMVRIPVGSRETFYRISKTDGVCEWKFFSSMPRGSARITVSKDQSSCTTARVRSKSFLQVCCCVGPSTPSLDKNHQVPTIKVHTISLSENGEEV

[2] = target: D(1A) dopamine receptor (Homo sapiens, UniProt P21728)
[3] = target: 3',5'-cyclic-AMP phosphodiesterase 4A (Homo sapiens, UniProt P27815); type: functional
[4] = target: T2, Amine oxidase [flavin-containing] A (Homo sapiens, UniProt P21397); type: functional
T2 sequence (P21397 whole entry): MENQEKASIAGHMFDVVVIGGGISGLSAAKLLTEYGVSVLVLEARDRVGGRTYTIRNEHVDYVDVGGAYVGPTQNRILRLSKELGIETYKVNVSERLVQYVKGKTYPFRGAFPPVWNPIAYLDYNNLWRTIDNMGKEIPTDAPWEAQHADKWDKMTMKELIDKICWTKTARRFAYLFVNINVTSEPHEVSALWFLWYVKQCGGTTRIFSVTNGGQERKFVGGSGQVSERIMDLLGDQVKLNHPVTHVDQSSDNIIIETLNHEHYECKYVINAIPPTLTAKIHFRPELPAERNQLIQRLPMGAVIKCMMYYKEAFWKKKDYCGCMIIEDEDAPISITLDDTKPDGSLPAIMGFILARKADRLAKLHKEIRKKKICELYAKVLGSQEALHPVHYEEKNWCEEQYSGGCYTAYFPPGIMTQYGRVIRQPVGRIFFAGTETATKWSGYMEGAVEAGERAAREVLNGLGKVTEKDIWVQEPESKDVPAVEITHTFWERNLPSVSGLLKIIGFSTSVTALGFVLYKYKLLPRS

[5] = target: 5-hydroxytryptamine receptor 2A (Homo sapiens, UniProt P28223); type: functional, cell-based
[6] = target: Mu-type opioid receptor (Homo sapiens, UniProt P35372)
[7] = target: T3, Muscarinic acetylcholine receptor M2 (Homo sapiens, UniProt P08172)
T3 sequence (P08172 whole entry): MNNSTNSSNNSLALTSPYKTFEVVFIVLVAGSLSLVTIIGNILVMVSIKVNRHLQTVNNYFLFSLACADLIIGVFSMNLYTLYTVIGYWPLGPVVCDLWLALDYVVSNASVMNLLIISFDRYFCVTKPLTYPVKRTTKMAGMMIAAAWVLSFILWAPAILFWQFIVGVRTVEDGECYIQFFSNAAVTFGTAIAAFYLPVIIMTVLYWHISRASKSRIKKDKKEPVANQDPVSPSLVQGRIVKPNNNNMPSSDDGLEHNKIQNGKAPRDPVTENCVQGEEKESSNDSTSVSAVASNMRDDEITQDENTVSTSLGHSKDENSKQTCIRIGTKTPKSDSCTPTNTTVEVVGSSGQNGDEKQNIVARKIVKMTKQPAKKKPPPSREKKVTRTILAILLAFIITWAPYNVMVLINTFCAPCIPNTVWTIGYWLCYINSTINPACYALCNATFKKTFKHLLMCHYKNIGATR

[8] = target: T4, Endothelin-1 receptor (Homo sapiens, UniProt P25101)
T4 sequence (P25101 whole entry): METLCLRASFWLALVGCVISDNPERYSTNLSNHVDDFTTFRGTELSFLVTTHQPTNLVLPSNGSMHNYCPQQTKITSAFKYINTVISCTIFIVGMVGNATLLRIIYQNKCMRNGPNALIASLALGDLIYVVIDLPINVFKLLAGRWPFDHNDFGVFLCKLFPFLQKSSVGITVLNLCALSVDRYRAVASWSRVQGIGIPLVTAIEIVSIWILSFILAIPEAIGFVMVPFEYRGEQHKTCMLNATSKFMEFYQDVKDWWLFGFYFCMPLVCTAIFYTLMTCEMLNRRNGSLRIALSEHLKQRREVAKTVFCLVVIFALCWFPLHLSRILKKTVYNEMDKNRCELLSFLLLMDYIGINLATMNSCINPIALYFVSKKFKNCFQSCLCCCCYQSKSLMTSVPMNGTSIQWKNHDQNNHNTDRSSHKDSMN

[9] = target: Gamma-aminobutyric acid receptor subunit alpha-1 (Rattus norvegicus, UniProt P62813)
[10] = target: T5, Glucocorticoid receptor (Homo sapiens, UniProt P04150)
T5 sequence (P04150 whole entry): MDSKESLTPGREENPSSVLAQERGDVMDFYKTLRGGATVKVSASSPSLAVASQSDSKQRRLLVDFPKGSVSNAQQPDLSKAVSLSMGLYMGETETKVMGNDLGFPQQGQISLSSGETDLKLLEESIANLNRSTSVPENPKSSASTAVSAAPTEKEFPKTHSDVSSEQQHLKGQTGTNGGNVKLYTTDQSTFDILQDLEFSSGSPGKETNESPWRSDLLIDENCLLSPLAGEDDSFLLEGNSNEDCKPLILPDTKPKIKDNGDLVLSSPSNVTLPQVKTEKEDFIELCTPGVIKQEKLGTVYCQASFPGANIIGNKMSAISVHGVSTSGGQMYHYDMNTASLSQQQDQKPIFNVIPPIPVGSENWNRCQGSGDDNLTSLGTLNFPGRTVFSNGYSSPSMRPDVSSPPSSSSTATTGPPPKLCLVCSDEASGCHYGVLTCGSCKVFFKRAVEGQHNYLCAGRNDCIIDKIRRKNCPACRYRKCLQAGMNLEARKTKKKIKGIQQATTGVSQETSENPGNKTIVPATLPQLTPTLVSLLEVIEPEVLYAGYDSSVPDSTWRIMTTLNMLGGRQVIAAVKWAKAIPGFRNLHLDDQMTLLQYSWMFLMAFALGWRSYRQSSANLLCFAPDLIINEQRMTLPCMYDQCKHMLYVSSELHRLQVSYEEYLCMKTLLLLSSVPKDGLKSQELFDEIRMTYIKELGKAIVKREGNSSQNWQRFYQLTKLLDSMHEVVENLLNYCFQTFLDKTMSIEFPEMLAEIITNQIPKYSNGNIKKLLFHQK
Also: assay procedure not described here.

D(1A) dopamine receptor, sequence (P21728 whole entry): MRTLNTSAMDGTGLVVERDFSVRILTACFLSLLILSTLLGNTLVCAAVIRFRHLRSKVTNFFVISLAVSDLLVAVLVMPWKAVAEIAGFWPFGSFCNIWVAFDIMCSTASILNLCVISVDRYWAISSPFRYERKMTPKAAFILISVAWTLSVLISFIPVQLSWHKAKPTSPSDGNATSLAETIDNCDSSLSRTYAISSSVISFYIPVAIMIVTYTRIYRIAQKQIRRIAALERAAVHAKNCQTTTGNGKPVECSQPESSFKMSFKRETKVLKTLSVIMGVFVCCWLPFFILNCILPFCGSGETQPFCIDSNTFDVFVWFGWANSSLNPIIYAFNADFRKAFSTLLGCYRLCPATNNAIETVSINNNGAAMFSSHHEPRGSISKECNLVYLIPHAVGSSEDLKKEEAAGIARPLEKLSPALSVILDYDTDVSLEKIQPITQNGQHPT
5-hydroxytryptamine receptor 2A, sequence (P28223 whole entry): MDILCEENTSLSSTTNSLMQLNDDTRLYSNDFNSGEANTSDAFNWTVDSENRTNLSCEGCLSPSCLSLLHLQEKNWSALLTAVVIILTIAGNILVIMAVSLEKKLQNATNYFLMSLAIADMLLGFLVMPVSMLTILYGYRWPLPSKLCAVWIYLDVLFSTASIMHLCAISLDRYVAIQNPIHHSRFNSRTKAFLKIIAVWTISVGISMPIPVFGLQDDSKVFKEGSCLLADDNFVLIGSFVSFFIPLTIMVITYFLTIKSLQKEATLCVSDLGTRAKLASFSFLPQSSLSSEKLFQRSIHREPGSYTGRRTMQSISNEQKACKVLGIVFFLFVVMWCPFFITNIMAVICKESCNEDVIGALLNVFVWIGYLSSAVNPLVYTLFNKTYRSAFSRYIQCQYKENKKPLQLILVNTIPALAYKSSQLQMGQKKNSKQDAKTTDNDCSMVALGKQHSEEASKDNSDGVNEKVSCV
3',5'-cyclic-AMP phosphodiesterase 4A, sequence (P27815 whole entry): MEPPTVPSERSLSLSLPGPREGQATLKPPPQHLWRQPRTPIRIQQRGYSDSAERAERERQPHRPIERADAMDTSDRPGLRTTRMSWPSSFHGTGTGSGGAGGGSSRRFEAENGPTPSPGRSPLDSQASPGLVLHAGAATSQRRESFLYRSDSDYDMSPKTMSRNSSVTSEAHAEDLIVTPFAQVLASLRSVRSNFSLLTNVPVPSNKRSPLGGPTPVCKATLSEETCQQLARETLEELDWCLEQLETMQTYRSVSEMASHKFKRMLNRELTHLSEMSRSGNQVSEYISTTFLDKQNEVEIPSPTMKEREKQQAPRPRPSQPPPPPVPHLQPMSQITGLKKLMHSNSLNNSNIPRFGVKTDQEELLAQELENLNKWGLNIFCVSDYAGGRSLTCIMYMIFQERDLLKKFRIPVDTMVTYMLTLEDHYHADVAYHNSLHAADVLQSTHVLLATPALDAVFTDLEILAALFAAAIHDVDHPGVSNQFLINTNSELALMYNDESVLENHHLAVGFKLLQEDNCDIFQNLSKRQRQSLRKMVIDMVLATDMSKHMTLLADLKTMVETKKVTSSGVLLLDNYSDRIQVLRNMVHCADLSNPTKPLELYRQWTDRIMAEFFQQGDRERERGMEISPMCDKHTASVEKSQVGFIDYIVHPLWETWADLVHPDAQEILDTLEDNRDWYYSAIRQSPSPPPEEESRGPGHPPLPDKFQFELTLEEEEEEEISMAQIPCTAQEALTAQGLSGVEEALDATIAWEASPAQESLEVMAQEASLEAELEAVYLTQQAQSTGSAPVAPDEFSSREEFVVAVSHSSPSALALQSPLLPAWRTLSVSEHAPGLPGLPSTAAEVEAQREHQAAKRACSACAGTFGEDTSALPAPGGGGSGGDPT
Gamma-aminobutyric acid receptor subunit alpha-1, sequence (P62813 whole entry): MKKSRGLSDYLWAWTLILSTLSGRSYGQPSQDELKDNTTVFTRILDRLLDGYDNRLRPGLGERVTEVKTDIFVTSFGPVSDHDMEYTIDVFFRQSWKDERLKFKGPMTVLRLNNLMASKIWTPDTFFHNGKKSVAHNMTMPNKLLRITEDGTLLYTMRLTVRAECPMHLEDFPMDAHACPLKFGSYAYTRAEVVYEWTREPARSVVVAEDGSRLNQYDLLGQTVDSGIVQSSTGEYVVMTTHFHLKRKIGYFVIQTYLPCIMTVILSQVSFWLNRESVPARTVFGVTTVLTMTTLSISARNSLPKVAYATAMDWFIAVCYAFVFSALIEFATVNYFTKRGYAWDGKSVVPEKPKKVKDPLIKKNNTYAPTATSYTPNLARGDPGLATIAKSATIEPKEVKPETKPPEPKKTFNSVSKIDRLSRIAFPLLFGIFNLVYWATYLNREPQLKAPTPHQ
Mu-type opioid receptor, sequence (P35372 whole entry): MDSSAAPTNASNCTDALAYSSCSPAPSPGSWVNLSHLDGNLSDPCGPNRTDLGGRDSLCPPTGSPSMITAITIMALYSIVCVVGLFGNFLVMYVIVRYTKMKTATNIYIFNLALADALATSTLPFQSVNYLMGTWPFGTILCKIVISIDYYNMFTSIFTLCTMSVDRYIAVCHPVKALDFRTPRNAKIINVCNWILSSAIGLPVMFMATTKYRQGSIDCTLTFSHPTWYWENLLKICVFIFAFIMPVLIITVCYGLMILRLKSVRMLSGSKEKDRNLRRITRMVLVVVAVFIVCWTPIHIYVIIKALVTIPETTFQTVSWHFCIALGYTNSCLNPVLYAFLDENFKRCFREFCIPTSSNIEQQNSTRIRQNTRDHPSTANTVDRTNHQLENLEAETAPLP

Row | Structure (SMILES) | AC50 [1] [µM] | AC50 [2] [µM] | AC50 [3] [µM] | AC50 [4] [µM] | AC50 [5] [µM] | AC50 [6] [µM] | AC50 [7] [µM] | AC50 [8] [µM] | AC50 [9] [µM] | AC50 [10] [µM]
1 | COCCCN1CCC(NC(=O)c2cc(Cl)c(N)c3c2OCC3)CC1 [PRUCALOPRIDE] | > 30 | > 30 | > 30 | > 30 | > 30 | > 30 | > 30 | > 30 |  | 
2 | Cc1cn([C@H]2C[C@H](N=[N+]=[N-])[C@@H](CO)O2)c(=O)[nH]c1=O [ZIDOVUDINE] | > 30 | > 30 | > 30 | > 30 |  | > 30 | > 30 | > 30 | > 10 | > 30
3 | Cc1cn([C@H]2C=C[C@@H](CO)O2)c(=O)[nH]c1=O [STAVUDINE] | > 30 | > 30 | > 30 | > 30 |  | > 30 | > 30 | > 30 | > 10 | 
4 | Cc1cccc(Nc2ccccc2C(=O)O)c1C [MEFENAMIC ACID] | > 30 | > 30 | > 30 | > 30 |  | > 30 | > 30 |  | > 10 | > 10
5 | CS(=O)(=O)c1ccc(C2=C(c3ccccc3)C(=O)OC2)cc1 [ROFECOXIB] | > 30 | > 30 | > 30 | > 30 |  | > 30 | > 30 | > 30 | > 10 | > 30
6 | CC[C@H]1[C@@H](O)[C@@H]2[C@H](CC[C@]3(C)[C@@H]([C@H](C)CCC(=O)O)CC[C@@H]23)[C@@]2(C)CC[C@@H](O)C[C@@H]12 [OBETICHOLIC ACID] | > 30 | > 30 | > 30 | > 30 | > 30 | > 30 | > 30 | > 30 | > 30 | > 30
7 | CC1(C)NC(=O)N(c2ccc([N+](=O)[O-])c(C(F)(F)F)c2)C1=O [NILUTAMIDE] | > 3 | > 30 | > 30 | > 30 | > 30 | > 30 | > 30 |  | > 30 | 
8 | C=CCc1ccccc1OCC(O)CNC(C)C (stereo not drawn) [ALPRENOLOL] | > 0.3 | > 0.3 | > 0.3 | > 0.3 | > 30 | > 0.3 | > 0.3 | > 30 | > 30 | 
9 | CC[C@H]1OC(=O)[C@H](C)[C@@H](O[C@H]2C[C@@](C)(OC)[C@@H](O)[C@H](C)O2)[C@H](C)[C@@H](O[C@@H]2O[C@H](C)C[C@H](N(C)C)[C@H]2O)[C@](C)(O)C[C@@H](C)CN(C)[C@H](C)[C@@H](O)[C@]1(C)O [AZITHROMYCIN] | > 30 | > 30 | > 30 | > 30 |  | > 30 | > 30 | > 30 | > 30 | 
10 | O=C(Cc1ccc(-c2ccccc2)cc1)Nc1ccccn1 [DIFENPIRAMIDE] | > 10 | > 30 | > 30 | > 30 | > 30 | > 30 | > 30 |  | > 30 | 
11 | O=C(OCC(O)CO)c1ccccc1Nc1ccnc2cc(Cl)ccc12 (stereo not drawn) [GLAFENINE] | 13.5 | > 30 | 8.3 | > 30 | > 30 | 28.7 | 4.3 | > 30 |  | 
12 | CC(=O)Nc1ccc(O)cc1 [ACETAMINOPHEN] | > 30 |  | > 30 | > 10 |  | > 30 | > 30 | > 30 |  | 
13 | NCC(CC(=O)O)c1ccc(Cl)cc1 (stereo not drawn) [BACLOFEN] | > 30 | > 30 | > 30 | > 30 |  | > 30 | > 30 | > 30 | > 10 | > 30
14 | CC[N+]1(C)[C@@H]2CC(OC(=O)[C@H](CO)c3ccccc3)C[C@H]1[C@@H]1O[C@@H]12 (stereo partly drawn) [OXITROPIUM] | > 30 | > 30 | > 30 | > 30 |  | > 30 | 0.003 |  |  | 
15 | CO[C@H]1C[C@@H]2CC[C@@H](C)[C@@](O)(O2)C(=O)C(=O)N2CCCC[C@H]2C(=O)O[C@H]([C@H](C)C[C@@H]2CC[C@@H](O)[C@H](OC)C2)CC(=O)[C@H](C)/C=C(\C)[C@@H](O)[C@@H](OC)C(=O)[C@H](C)C[C@H](C)/C=C/C=C/C=C/1C [SIROLIMUS] | > 30 | > 30 | > 30 | > 30 |  | > 30 | > 30 | > 30 | > 10 | 
16 | O=C(O)c1cc(O)ccc1O [GENTISIC ACID] | > 30 | > 30 | > 30 | > 30 |  | > 30 | > 30 |  |  | 
